Reference: US7868006B2, “Heterocyclic substituted piperazines with CXCR3 antagonist activity” (Schering Corporation, priority 2005, dated 2011)

Molecular target: T1, human CXCR3 (N-delta 4) (Homo sapiens, UniProt P49682)
T1 construct: CD8 leader (N); Flag tag (N); expressed in transfected cells; host or cells: mouse pro-B Ba/F3 cells, stably transfected with pME18Sneo-hCXCR3 (N-delta 4); membrane preparation
T1 sequence (P49682 5-368 limits assumed): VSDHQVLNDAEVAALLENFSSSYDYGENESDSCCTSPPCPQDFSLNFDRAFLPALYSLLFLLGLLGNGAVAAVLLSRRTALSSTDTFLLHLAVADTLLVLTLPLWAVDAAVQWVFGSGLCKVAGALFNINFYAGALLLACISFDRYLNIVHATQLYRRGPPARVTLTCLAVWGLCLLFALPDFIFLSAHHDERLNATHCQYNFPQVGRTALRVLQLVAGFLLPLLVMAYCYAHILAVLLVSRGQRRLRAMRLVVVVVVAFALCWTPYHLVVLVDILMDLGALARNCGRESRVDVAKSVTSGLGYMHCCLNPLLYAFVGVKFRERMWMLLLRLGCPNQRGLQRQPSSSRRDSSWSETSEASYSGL
Test: Human CXCR3 (N-delta 4) Scintillation Proximity Assay (SPA), [125I] IP-10 binding
Settings: IC50 rating; Ba/F3-hCXCR3 (N-delta 4) membranes, 25 pM [125I] IP-10; read-out: IC50
Method in brief: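 Membranes from mouse Ba/F3 pro-B cells stably expressing Flag-tagged human CXCR3 (N-delta 4), 2 μg per point, bound to WGA SPA beads. Compound titrations competed with 25 pM [125I] IP-10 for 3 hr at room temperature in HEPES buffer with Ca2+, Mg2+, NaCl, 1.0% BSA; bead-bound radioactivity counted, […] values reported.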

| Structure (SMILES) | IC50 [nM] |
| --- | --- |
| CCNc1nnc(-c2cnc(N3CCN(C4CCN(Cc5ccc(C)c(F)c5)CC4)[C@@H](CC)C3)c(C)n2)o1 [Compound 127] | < 25 |
| CCNc1nnc(-c2cnc(N3C[C@H](CC)N(C4CCN(Cc5ccc(F)cc5)CC4)C[C@H]3C)c(C)n2)o1 [Compound 128] | < 25 |
| CCc1nnc(-c2cnc(N3CCN(C4CCN(C(=O)c5ccc(Cl)cc5)CC4)[C@@H](CC)C3)c(C)n2)[nH]1 [Compound 129] | < 25 |
| CC[C@H]1CN(c2ncc(-c3ncc[nH]3)nc2C)[C@H](C)CN1C1CCN(C(=O)c2ccc(Cl)nc2N)CC1 [Compound 130] | < 25 |
| CC[C@H]1CN(c2ncc(-c3nc[nH]n3)nc2C)[C@H](C)CN1C1CCN(C(=O)c2ccc(Cl)nc2N)CC1 [Compound 131] | < 25 |
| CCNc1nnc(-c2cnc(N3CCN(C4CCN(Cc5ccc(Cl)cc5)CC4)[C@@H](CC)C3)c(C)n2)o1 [Compound 132] | < 25 |
| CC[C@H]1CN(c2ncc(-c3nc[nH]n3)nc2C)[C@H](C)CN1C1CCN(C(CO)c2ccc(Cl)cc2)CC1 (stereo partly shown) [Compound 133] | < 25 |
| CC[C@H]1CN(c2ncc(-c3nc[nH]n3)nc2C)[C@H](C)CN1C1CCN(C(=O)c2ccc(Cl)c(F)c2)CC1 [Compound 134] | < 25 |
| CC[C@H]1CN(c2ncc(-c3ncc[nH]3)nc2C)CCN1C1CCN(Cc2ccc(OC(F)(F)F)cc2)CC1 [Compound 135] | < 25 |
| CCNc1nnc(-c2cnc(N3C[C@H](CC)N(C4CCN(Cc5ccc(O)cc5)CC4)C[C@H]3C)c(C)n2)o1 [Compound 136] | < 25 |
| CC[C@H]1CN(c2ncc(-c3nnc(C)o3)nc2F)CCN1C1CCN(C(=O)c2ccc(Cl)nc2N)CC1 [Compound 137] | 25 to 100 |
| CC[C@H]1CN(c2ncc(-c3nc[nH]n3)nc2C)CCN1C1CCN(C(=O)c2cc(F)c(F)cc2Cl)CC1 [Compound 138] | 25 to 100 |
| CCNc1nnc(-c2cnc(N3CCN(C4CCN(C(=O)c5ccc(CC)cc5)CC4)[C@@H](CC)C3)c(C)n2)o1 [Compound 139] | 25 to 100 |
| CC[C@H]1CN(c2ncc(-c3nnc(C4CC4)[nH]3)nc2C)CCN1C1CCN(C(=O)c2ccc(Cl)cc2)CC1 [Compound 140] | < 25 |
| CC[C@H]1CN(c2ncc(-c3nnc(C(C)C)[nH]3)nc2C)CCN1C1CCN(C(=O)c2ccc(Cl)cc2)CC1 [Compound 141] | 25 to 100 |
| CCNc1nnc(-c2cnc(N3CCN(C4CCN(C(=O)c5ccc(Cl)cc5)CC4)[C@@H](CC)C3)c(C)n2)o1 [Compound 142] | < 25 |
| CC[C@H]1CN(c2ncc(-c3nnc(NC)o3)nc2C)[C@H](C)CN1C1CCN(C(=O)c2ccc(Cl)cc2)CC1 [Compound 143] | < 25 |
| CCNc1nnc(-c2cnc(N3CCN(C4CCN(C(=O)c5ccc(F)c(F)c5)CC4)[C@@H](CC)C3)c(C)n2)o1 [Compound 144] | < 25 |
| CCNc1nnc(-c2cnc(N3C[C@H](CC)N(C4CCN(C(=O)c5ccc(O)cc5)CC4)C[C@H]3C)c(C)n2)o1 [Compound 145] | 25 to 100 |
| CC[C@H]1CN(c2ncc(-c3nc4ccccc4[nH]3)nc2C)CCN1C1CCN(C(=O)c2ccc(Cl)cc2)CC1 [Compound 146] | < 25 |

| Structure (SMILES) | IC50 [nM] |
| --- | --- |
| CC[C@H]1CN(c2ncc(-c3nc[nH]n3)nc2C)CCN1C1CCN(C(=O)c2ccc(C(F)(F)F)nc2N)CC1 [Compound 147] | 25 to 100 |
| CC[C@H]1CN(c2ncc(-c3nc[nH]n3)nc2C)[C@H](C)CN1C1CCN(Cc2ccc(OC(F)(F)F)cc2)CC1 [Compound 148] | < 25 |
| CCNc1nnc(-c2cnc(N3CCN(C4CCN(C(=O)c5ccc(Cl)s5)CC4)[C@@H](CC)C3)c(C)n2)o1 [Compound 149] | < 25 |
| CC[C@H]1CN(c2ncc(C3=NCCN3)nc2C)[C@H](C)CN1C1CCN(Cc2ccc(OC(F)(F)F)cc2)CC1 [Compound 150] | < 25 |
| CC[C@H]1CN(c2ncc(-c3nnc(C)o3)nc2Cl)CCN1C1CCN(C(=O)c2ccc(Cl)nc2N)CC1 [Compound 151] | < 25 |
| CCNc1nnc(-c2cnc(N3C[C@H](CC)N(C4CCN(C(=O)c5ccc(OC)cc5)CC4)C[C@H]3C)c(C)n2)o1 [Compound 152] | 25 to 100 |
| CCNc1nnc(-c2cnc(N3CCN(C4CCN(C(=O)c5ccc(CC)nc5N)CC4)[C@@H](CC)C3)c(C)n2)o1 [Compound 153] | 25 to 100 |
| CC[C@H]1CN(c2ncc(-c3nnc[nH]3)nc2C(F)(F)F)CCN1C1CCN(C(=O)c2ccc(Cl)cc2)CC1 [Compound 154] | < 25 |
| CCNc1nnc(-c2cnc(N3CCN(C4CCN(C(=O)c5ccc(Cl)c(C)c5)CC4)[C@@H](CC)C3)c(C)n2)o1 [Compound 155] | < 25 |
| CCNc1nnc(-c2cnc(N3CCN(C4CCN(C(=O)c5ccc(Cl)cc5C)CC4)[C@@H](CC)C3)c(C)n2)o1 [Compound 156] | < 25 |
| CCNc1nnc(-c2nc(C)c(N3CCN(C4CCN(C(=O)c5ccc(Cl)cc5)CC4)[C@@H](CC)C3)nc2C)o1 [Compound 157] | < 25 |
| CCNc1nnc(-c2cnc(N3CCN(C4CCN(C(=O)c5ccc(Cl)cc5)CC4)[C@@H](CC)C3)c(CC)n2)o1 [Compound 158] | < 25 |
| CC[C@H]1CN(c2ncc(-c3nnc(NC(C)C)o3)nc2C)CCN1C1CCN(C(=O)c2ccc(F)c(F)c2)CC1 [Compound 159] | < 25 |
| CCNc1nnc(-c2cnc(N3C[C@H](CC)N(C4CCN(C(=O)c5ccc(F)c(F)c5)CC4)C[C@H]3C)c(C)n2)o1 [Compound 160] | < 25 |
| CC[C@H]1CN(c2ncc(-c3nnc(NC)o3)nc2C)[C@H](C)CN1C1CCN(C(=O)c2ccc(Cl)nc2N)CC1 [Compound 161] | < 25 |
| CCNc1nnc(-c2cnc(N3CCN(C4CCN([C@@H](CO)c5ccc(Cl)cc5)CC4)[C@@H](CC)C3)c(C)n2)o1 [Compound 162] | < 25 |
| CCNc1nnc(-c2cnc(N3CCN(C4CCN([C@H](CO)c5ccc(Cl)cc5)CC4)[C@@H](CC)C3)c(C)n2)o1 [Compound 163] | < 25 |
| CCNc1nnc(-c2cnc(N3CCN(C4CCN(C(=O)c5ccc(Cl)c(F)c5)CC4)[C@@H](CC)C3)c(C)n2)o1 [Compound 164] | < 25 |
| CCNc1nnc(-c2cnc(N3CCN(C4CCN(C(=O)c5ccc(Cl)cc5F)CC4)[C@@H](CC)C3)c(C)n2)o1 [Compound 165] | < 25 |
| CCNc1nnc(-c2cnc(N3CCN(C4CCN(Cc5ccc(C(F)(F)F)cc5)CC4)[C@@H](CC)C3)c(C)n2)o1 [Compound 166] | < 25 |

| Structure (SMILES) | IC50 [nM] |
| --- | --- |
| CC[C@H]1CN(c2ncc(-c3nnc(N)o3)nc2C)[C@H](C)CN1C1CCN(Cc2ccc(OC(F)(F)F)cc2)CC1 [Compound 167] | < 25 |
| CCNc1nnc(-c2cnc(N3C[C@H](CC)N(C4CCN(Cc5ccc(Cl)cc5O)CC4)C[C@H]3C)c(C)n2)o1 [Compound 168] | < 25 |
| CCNc1nnc(-c2cnc(N3CCN(C4CCN(CCC(=O)c5ccc(Cl)cc5)CC4)[C@@H](CC)C3)c(C)n2)o1 [Compound 169] | < 25 |
| CC[C@H]1CN(c2ncc(-c3nnc(N)o3)nc2C)[C@H](C)CN1C1CCN([C@H](C(=O)OC)c2ccc(Cl)cc2)CC1 [Compound 170] | 25 to 100 |
| CC[C@H]1CN(c2ncc(-c3nnc(NC(C)C)o3)nc2C)CCN1C1CCN(C(=O)c2ccc(Cl)nc2N)CC1 [Compound 171] | < 25 |
| CCNc1nnc(-c2cnc(N3CCN(C4CCN(C(=O)c5ccc(Cl)nc5N)CC4)[C@@H](CC)C3)c(CC)n2)o1 [Compound 173] | < 25 |
| CCNc1nnc(-c2nc(C)c(N3CCN(C4CCN(C(=O)c5ccc(Cl)nc5N)CC4)[C@@H](CC)C3)nc2N)o1 [Compound 174] | < 25 |
| CCNc1nnc(-c2cnc(N3C[C@H](CC)N(C4CCN(C(CO)c5ccc(F)c(F)c5)CC4)C[C@H]3C)c(C)n2)o1 (stereo partly shown) [Compound 175] | < 25 |
| CCNc1nnc(-c2cnc(N3CCN(C4CCN(C(=O)c5ccc(C(F)(F)F)cc5)CC4)[C@@H](CC)C3)c(C)n2)o1 [Compound 176] | < 25 |
| CC[C@H]1CN(c2ncc(-c3nnc(N)o3)nc2C)[C@H](C)CN1C1CCN([C@@H](C)c2ccc(OC(F)(F)F)cc2)CC1 [Compound 177] | < 25 |
| CC[C@H]1CN(c2ncc(-c3nnc(N)o3)nc2C)[C@H](C)CN1C1CCN([C@H](C)c2ccc(OC(F)(F)F)cc2)CC1 [Compound 178] | < 25 |
| CCNc1nnc(-c2cnc(N3C[C@H](CC)N(C4CCN(Cc5ccc(F)cc5)CC4)C[C@H]3C)c(C(F)(F)F)n2)o1 [Compound 179] | < 25 |
| CC[C@H]1CN(c2ncc(-c3nnc(NC4(C)CC4)o3)nc2C)[C@H](C)CN1C1CCN(C(=O)c2ccc(Cl)cc2)CC1 [Compound 180] | < 25 |
| CCNc1nnc(-c2cnc(N3CCN(C4CCN(C(=O)c5ccc(Cl)nc5N)CC4)[C@@H](CC)C3)c(C3CC3)n2)o1 [Compound 181] | 25 to 100 |
| CCNc1nnc(-c2cnc(N3CCN(C4CCN(C(C(=O)OC)c5ccc(Cl)cc5)CC4)[C@@H](CC)C3)c(C)n2)o1 (stereo partly shown) [Compound 182] | < 25 |
| CCNc1nnc(-c2cnc(N3CCN(C4CCN(C(=O)c5ccc(C(F)(F)F)cc5N)CC4)[C@@H](CC)C3)c(C)n2)o1 [Compound 183] | < 25 |
| CCNc1nnc(-c2cnc(N3CCN(C4CCN(C(=O)c5ccc(C(F)(F)F)nc5N)CC4)[C@@H](CC)C3)c(C)n2)o1 [Compound 184] | < 25 |
| CCNc1nnc(-c2cnc(N3C[C@H](CC)N(C4CCN(Cc5ccc(OC(F)(F)F)cc5)CC4)C[C@H]3C)c(C)n2)o1 [Compound 185] | < 25 |
